In brackets after ≈: the same amount, converted by molar mass. Numbered stars: 1 amine (or outer) side, 2 acyl side, 3 side chain; on linkers, the order of the positions; unused ones are H or OH. Square brackets hold non-standard residues; d marks the D form. Peptide text beside a SMILES is read from it. * marks the point of attachment. ξ: configuration not given here. X1 = N=C1NCC(C(O)C(N[*:1])C(=O)[*:2])N1C1OC(CO)C(O)C(O)C1O; ξEnduracididine(βξ-OH,4'ξ) = N=C1NCC(C(O)C(N)C(=O)O)N1; X2 = OCC1OC(OC2C(CO)OC(*)C(O)C2O)C(O)C(O)C1O; ξCha(3ξ-Me) = CC(C1CCCCC1)C(N)C(=O)O
Tests used:
Assay in all cases: In vitro antibacterial evaluation: minimum inhibitory concentration (MIC), broth dilution method
Type in all cases: cell-based
[1] = tested on: Escherichia coli; details: broth dilution, 18 hours at 35° C.
[2] = tested on: Streptococcus sp.; details: broth dilution, 18 hours at 35° C.
Summary of the method: (§1)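 Test strains, among them recent clinical isolates carrying methicillin, penicillin and/or vancomycin resistance, were inoculated at 5×10^5 CFU/mL. A broth dilution series spanning 64-0.06 μg/mL in Muller-Hinton II […] (NCCLS M7-A2) defined the MIC as the lowest growth-inhibiting concentration.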

[3] = tested on: Enterococcus sp.; details: broth dilution, 18 hours at 35° C.
Summary of the method: as §1

[4] = tested on: Staphylococcus sp.; details: broth dilution, 18 hours at 35° C.; for MIC Staphylococcus aureus-SMITH (GC 4543): strain SMITH GC 4543
Summary of the method: as §1

[5] = Streptococcus agalactiae (GC 4564)
[6] = Streptococcus pneumoniae (ATCC 6301)
[7] = Streptococcus pneumoniae (GC 1894)
[8] = Streptococcus pneumoniae (GC 4565)
[9] = Streptococcus pyogenes (GC 4563)
[10] = Enterococcus faecalis (ATCC 29212)
[11] = Enterococcus faecalis (GC 2242)
[12] = Enterococcus faecalis (GC 2691)
[13] = Enterococcus faecalis (GC 3059)
[14] = Enterococcus faecalis (GC 4552)
[15] = Enterococcus faecalis (GC 4553)
[16] = Enterococcus faecalis (GC 4554)
[17] = Enterococcus faecalis (GC 6189)

In the case of `CC(C1CCCCC1)C1NC(=O)CNC(=O)C(CO)NC(=O)C(C(O)C2CNC(=N)N2C2OC(CO)C(O)C(O)C2O)NC(=O)C(C(O)C2CNC(=N)N2)NC(=O)C(Cc2ccc(OC3OC(CO)C(OC4OC(CO)C(O)C(O)C4O)C(O)C3O)cc2)NC1=O` (stereo not drawn) [Example 51, Cyclo[3-cyclohexyl-2-aminobutyl-O-(4-O-hexopyranosylhexopyranosyl)tyrosyl-3-(2-iminoimidazolidin-4-yl)seryl-3-(3-hexopyranosyl-2-iminoimidazolidin-4-yl)-serylserylglycyl]] (cyclo(G[ξCha(3ξ-Me)]Y(X2)[ξEnduracididine(βξ-OH,4'ξ)][X1]S); configuration not given here), the “MIC Escherichia coli (ATCC 25922)” value [1] was greater than 64 µg/mL, the “MIC Escherichia coli (GC 4559)” value [1] was 64 µg/mL (≈ 49.2 µM) and the “MIC Escherichia coli (GC 4560)” value [1] was 8 µg/mL (≈ 6.15 µM). The “MIC Streptococcus agalactiae (GC 4564)” value [2, 5] was 16 µg/mL (≈ 12.3 µM), the “MIC Streptococcus pneumoniae (ATCC 6301)” value [2, 6] was 8 µg/mL (≈ 6.15 µM) and the “MIC Streptococcus pneumoniae (GC 1894)” value [2, 7] was 4 µg/mL (≈ 3.07 µM). For the same compound, the “MIC Streptococcus pneumoniae (GC 4565)” value [2, 8] was 8 µg/mL (≈ 6.15 µM), the “MIC Streptococcus pyogenes (GC 4563)” value [2, 9] was 8 µg/mL (≈ 6.15 µM) and the “MIC Streptococcus agalactiae (GC 4564)” value [2] was 16 µg/mL (≈ 12.3 µM). The “MIC Streptococcus pneumoniae (ATCC 6301)” value [2] was 8 µg/mL (≈ 6.15 µM), the “MIC Streptococcus pneumoniae (GC 1894)” value [2] was 4 µg/mL (≈ 3.07 µM) and the “MIC Streptococcus pneumoniae (GC 4565)” value [2] was 8 µg/mL (≈ 6.15 µM). The “MIC Streptococcus pyogenes (GC 4563)” value [2] was 8 µg/mL (≈ 6.15 µM), the “MIC Enterococcus avium (GC 4558)” value ([3]; Enterococcus avium (GC 4558)) was 64 µg/mL (≈ 49.2 µM) and the “MIC Enterococcus faecalis (ATCC 29212)” value [3, 10] was greater than 64 µg/mL. For the same compound, the “MIC Enterococcus faecalis (GC 2242)” value [3, 11] was 64 µg/mL (≈ 49.2 µM), the “MIC Enterococcus faecalis (GC 2691)” value [3, 12] was greater than 64 µg/mL and the “MIC Enterococcus faecalis (GC 3059)” value [3, 13] was greater than 64 µg/mL. For the same compound, the “MIC Enterococcus faecalis (GC 4552)” value [3, 14] was greater than 64 µg/mL, the “MIC Enterococcus faecalis (GC 4553)” value [3, 15] was greater than 64 µg/mL and the “MIC Enterococcus faecalis (GC 4554)” value [3, 16] was greater than 64 µg/mL. The “MIC Enterococcus faecalis (GC 6189)” value [3, 17] was greater than 64 µg/mL, the “MIC Enterococcus faecium (GC 2243)” value ([3]; Enterococcus faecium (GC 2243)) was greater than 64 µg/mL and the “MIC Enterococcus faecium (GC 4556)” value ([3]; Enterococcus faecium (GC 4556)) was greater than 64 µg/mL. For the same compound, the “MIC Enterococcus faecium (GC 4557)” value ([3]; Enterococcus faecium (GC 4557)) was 16 µg/mL (≈ 12.3 µM), the “MIC Enterococcus avium (GC 4558)” value [3] was 64 µg/mL (≈ 49.2 µM) and the “MIC Enterococcus faecalis (ATCC 29212)” value [3] was greater than 64 µg/mL. For the same compound, the “MIC Enterococcus faecalis (GC 2242)” value [3] was 64 µg/mL (≈ 49.2 µM), the “MIC Enterococcus faecalis (GC 2691)” value [3] was greater than 64 µg/mL and the “MIC Enterococcus faecalis (GC 3059)” value [3] was greater than 64 µg/mL. The “MIC Enterococcus faecalis (GC 4552)” value [3] was greater than 64 µg/mL, the “MIC Enterococcus faecalis (GC 4553)” value [3] was greater than 64 µg/mL and the “MIC Enterococcus faecalis (GC 4554)” value [3] was greater than 64 µg/mL. The “MIC Enterococcus faecalis (GC 6189)” value [3] was greater than 64 µg/mL, the “MIC Enterococcus faecium (GC 2243)” value [3] was greater than 64 µg/mL and the “MIC Enterococcus faecium (GC 4556)” value [3] was greater than 64 µg/mL. The “MIC Enterococcus faecium (GC 4557)” value [3] was 16 µg/mL (≈ 12.3 µM), the “MIC Coagulase Negative Staphylococcus (GC 4547)” value [4] was 16 µg/mL (≈ 12.3 µM) and the “MIC Coagulase Negative Staphylococcus (GC 4548)” value [4] was 16 µg/mL (≈ 12.3 µM). For the same compound, the “MIC Coagulase Negative Staphylococcus (GC 4549)” value [4] was 4 µg/mL (≈ 3.07 µM), the “MIC Coagulase Negative Staphylococcus (GC 4551)” value [4] was 64 µg/mL (≈ 49.2 µM) and the “MIC Staphylococcus aureus SMITH (GC 4543)” value [4] was 32 µg/mL (≈ 24.6 µM). For the same compound, the “MIC Staphylococcus haemolyticus (GC 4546)” value [4] was 32 µg/mL (≈ 24.6 µM) and the “MIC Staphylococcus aureus-SMITH (GC 4543)” value [4] was 32 µg/mL (≈ 24.6 µM).
In the case of `CC(c1ccccc1)C1NC(=O)CNC(=O)C(CO)NC(=O)C(C(O)C2CNC(=N)N2C2OC(CO)C(O)C(O)C2O)NC(=O)C(C(O)C2CNC(=N)N2)NC(=O)C(Cc2ccc3oc(-c4ccc(C(C)(C)C)cc4)nc3c2)NC1=O` (stereo not drawn) [Example 32, Cyclo[3-[2-(4-tert-butylphenyl)-1,3-benzoxazol-5-yl]alanyl-3-(2-iminoimidazolidin-4-yl)seryl-3-(3-hexopyranosyl-2-iminoimidazolidin-4-yl)serylserylglycyl-β-methylphenylalanyl]], the “MIC Escherichia coli (ATCC 25922)” value [1] was 16 µg/mL (≈ 14.2 µM), the “MIC Escherichia coli (GC 4559)” value [1] was 16 µg/mL (≈ 14.2 µM) and the “MIC Escherichia coli (GC 4560)” value [1] was 4 µg/mL (≈ 3.55 µM). For the same compound, the “MIC Streptococcus agalactiae (GC 4564)” value [2, 5] was 16 µg/mL (≈ 14.2 µM), the “MIC Streptococcus pneumoniae (ATCC 6301)” value [2, 6] was 16 µg/mL (≈ 14.2 µM) and the “MIC Streptococcus pneumoniae (GC 1894)” value [2, 7] was 16 µg/mL (≈ 14.2 µM). The “MIC Streptococcus pneumoniae (GC 4565)” value [2, 8] was 16 µg/mL (≈ 14.2 µM), the “MIC Streptococcus pyogenes (GC 4563)” value [2, 9] was 8 µg/mL (≈ 7.09 µM) and the “MIC Streptococcus agalactiae (GC 4564)” value [2] was 16 µg/mL (≈ 14.2 µM). The “MIC Streptococcus pneumoniae (ATCC 6301)” value [2] was 16 µg/mL (≈ 14.2 µM), the “MIC Streptococcus pneumoniae (GC 1894)” value [2] was 16 µg/mL (≈ 14.2 µM) and the “MIC Streptococcus pneumoniae (GC 4565)” value [2] was 16 µg/mL (≈ 14.2 µM). The “MIC Streptococcus pyogenes (GC 4563)” value [2] was 8 µg/mL (≈ 7.09 µM), the “MIC Enterococcus avium (GC 4558)” value ([3]; Enterococcus avium (GC 4558)) was 4 µg/mL (≈ 3.55 µM) and the “MIC Enterococcus faecalis (ATCC 29212)” value [3, 10] was 8 µg/mL (≈ 7.09 µM). The “MIC Enterococcus faecalis (GC 2242)” value [3, 11] was 4 µg/mL (≈ 3.55 µM), the “MIC Enterococcus faecalis (GC 2691)” value [3, 12] was 8 µg/mL (≈ 7.09 µM) and the “MIC Enterococcus faecalis (GC 3059)” value [3, 13] was 8 µg/mL (≈ 7.09 µM). For the same compound, the “MIC Enterococcus faecalis (GC 4552)” value [3, 14] was 8 µg/mL (≈ 7.09 µM), the “MIC Enterococcus faecalis (GC 4553)” value [3, 15] was 8 µg/mL (≈ 7.09 µM) and the “MIC Enterococcus faecalis (GC 4554)” value [3, 16] was 4 µg/mL (≈ 3.55 µM). For the same compound, the “MIC Enterococcus faecalis (GC 6189)” value [3, 17] was 4 µg/mL (≈ 3.55 µM), the “MIC Enterococcus faecium (GC 2243)” value ([3]; Enterococcus faecium (GC 2243)) was 4 µg/mL (≈ 3.55 µM) and the “MIC Enterococcus faecium (GC 4556)” value ([3]; Enterococcus faecium (GC 4556)) was 8 µg/mL (≈ 7.09 µM). For the same compound, the “MIC Enterococcus faecium (GC 4557)” value ([3]; Enterococcus faecium (GC 4557)) was 2 µg/mL (≈ 1.77 µM), the “MIC Enterococcus avium (GC 4558)” value [3] was 4 µg/mL (≈ 3.55 µM) and the “MIC Enterococcus faecalis (ATCC 29212)” value [3] was 8 µg/mL (≈ 7.09 µM). For the same compound, the “MIC Enterococcus faecalis (GC 2242)” value [3] was 4 µg/mL (≈ 3.55 µM), the “MIC Enterococcus faecalis (GC 2691)” value [3] was 8 µg/mL (≈ 7.09 µM) and the “MIC Enterococcus faecalis (GC 3059)” value [3] was 8 µg/mL (≈ 7.09 µM). The “MIC Enterococcus faecalis (GC 4552)” value [3] was 8 µg/mL (≈ 7.09 µM), the “MIC Enterococcus faecalis (GC 4553)” value [3] was 8 µg/mL (≈ 7.09 µM) and the “MIC Enterococcus faecalis (GC 4554)” value [3] was 4 µg/mL (≈ 3.55 µM). For the same compound, the “MIC Enterococcus faecalis (GC 6189)” value [3] was 4 µg/mL (≈ 3.55 µM), the “MIC Enterococcus faecium (GC 2243)” value [3] was 4 µg/mL (≈ 3.55 µM) and the “MIC Enterococcus faecium (GC 4556)” value [3] was 8 µg/mL (≈ 7.09 µM). The “MIC Enterococcus faecium (GC 4557)” value [3] was 2 µg/mL (≈ 1.77 µM), the “MIC Coagulase Negative Staphylococcus (GC 4547)” value [4] was 2 µg/mL (≈ 1.77 µM) and the “MIC Coagulase Negative Staphylococcus (GC 4548)” value [4] was 1 µg/mL (≈ 0.886 µM). The “MIC Coagulase Negative Staphylococcus (GC 4549)” value [4] was 2 µg/mL (≈ 1.77 µM), the “MIC Coagulase Negative Staphylococcus (GC 4551)” value [4] was 4 µg/mL (≈ 3.55 µM) and the “MIC Coagulase Negative Staphylococcus (GC 6257)” value [4] was 2 µg/mL (≈ 1.77 µM). For the same compound, the “MIC Staphylococcus aureus SMITH (GC 4543)” value [4] was 2 µg/mL (≈ 1.77 µM), the “MIC Staphylococcus haemolyticus (GC 4546)” value [4] was 2 µg/mL (≈ 1.77 µM) and the “MIC Staphylococcus aureus-SMITH (GC 4543)” value [4] was 2 µg/mL (≈ 1.77 µM).
